Each structure is given as a SMILES string. Values joined by “and” are separate entries in the source; they are usually repeats but may differ in a detail not shown here. Equal entries are not always repeated.

Among the data in PubChem BioAssay AID342 (DTP/NCI, 2004) are T/C values, retold here.

This experiment has as its system Swiss mice, Sarcoma 180 sc, mean tumor weight T/C. Description: NCI In Vivo Anticancer Drug Screen. Data for tumor model Sarcoma 180 (subcutaneous) in Swiss mice. Conditions: endpoint: mean tumor weight, higher = larger tumour. Put shortly: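 Mice bearing transplanted tumors were treated with compound, and survival or tumor size was measured. Values are expressed as the treated-group measurement (T) divided by the vehicle-treated control measurement (C).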

Setting [1] is: dose: 2.5 mg/kg/injection, schedule: Q01DX007 (sc), vehicle: steriod suspending solution.
[2] abbreviates: dose: 60.0 mg/kg/injection, schedule: Q01DX007 (sc), vehicle: steriod suspending solution.

Consider `C=CCOc1ccc2c(c1)CC[C@@H]1[C@@H]2CC[C@]2(C)[C@@H](O)[C@@H](O)C[C@@H]12`, for which the T/C (as a rule, the result in the treated group divided by that in the control group, in per cent) by setting is: (dose: 0.25 mg/kg/injection, schedule: Q#A X014 (sc), vehicle: steriod suspending solution) 90 % of control; (dose: 0.5 mg/kg/injection, schedule: Q01DX007 (sc), vehicle: steriod suspending solution) 106 % of control; (dose: 1.25 mg/kg/injection, schedule: Q01DX007 (sc), vehicle: steriod suspending solution) 77 % of control; (dose: 1.25 mg/kg/injection, schedule: Q#A X014 (sc), vehicle: steriod suspending solution) 68 % of control; under setting [1], 91 % of control; (dose: 2.5 mg/kg/injection, schedule: Q#A X014 (ip), vehicle: methylcellulose (MC)) 84 % of control. Besides, the T/C was 36 % of control (dose: 2.5 mg/kg/injection, schedule: Q#A X014 (sc), vehicle: steriod suspending solution) and 60 % of control (dose: 10.0 mg/kg/injection, schedule: Q#A X014 (sc), vehicle: steriod suspending solution).

`CC1(c2ccccc2)O[C@@H]2C[C@H]3[C@@H]4CCC5=CC(=O)C=C[C@]5(C)[C@@]4(F)[C@@H](O)C[C@]3(C)[C@]2(C(=O)CO)O1` (stereo partly drawn): the T/C is, setting by setting: (dose: 1.2 mg/kg/injection, schedule: Q01DX007 (sc), vehicle: steriod suspending solution) 72 % of control; (dose: 1.7 mg/kg/injection, schedule: Q#A X014 (sc), vehicle: steriod suspending solution) 70 % of control; under setting [1], 70 % of control; (dose: 2.6 mg/kg/injection, schedule: Q#A X014 (sc), vehicle: steriod suspending solution) 32 % of control; (dose: 5.0 mg/kg/injection, schedule: Q01DX007 (sc), vehicle: steriod suspending solution) 52 % of control; (dose: 6.0 mg/kg/injection, schedule: Q01DX007 (sc), vehicle: steriod suspending solution) 63 % of control. Also, the T/C is, setting by setting: (dose: 39.0 mg/kg/injection, schedule: Q01DX007 (sc), vehicle: steriod suspending solution) 28 % of control; (dose: 50.0 mg/kg/injection, schedule: Q01DX007 (sc), vehicle: steriod suspending solution) 14 % of control; under setting [2], 33 % of control; (dose: 100.0 mg/kg/injection, schedule: Q01DX007 (sc), vehicle: steriod suspending solution) 7 % of control.

Turning to `O=C(c1ccccc1)C(C(=O)c1ccccc1)C(=O)c1ccccc1.O=C(c1ccccc1)C(C(=O)c1ccccc1)C(=O)c1ccccc1.[Cu]`, the T/C is 68 % of control and 70 % of control (dose: 55.0 mg/kg/injection, schedule: Q01DX007 (ip), vehicle: carboxymethylcellulose (CMC)); 63 % of control and 84 % of control (dose: 85.0 mg/kg/injection, schedule: Q01DX007 (ip), vehicle: carboxymethylcellulose (CMC)); 60 % of control and 64 % of control (dose: 190.0 mg/kg/injection, schedule: Q01DX007 (ip), vehicle: carboxymethylcellulose (CMC)); 66 % of control (dose: 284.0 mg/kg/injection, schedule: Q01DX007 (ip), vehicle: carboxymethylcellulose (CMC)).

On to `CN(C)c1ccc(/C=C\c2ccnc3ccccc23)cc1`, for which the T/C (dose: 12.5 mg/kg/injection, schedule: Q01DX007 (ip), vehicle: water) was 123 % of control; the T/C (dose: 16.0 mg/kg/injection, schedule: Q01DX007 (ip), vehicle: methylcellulose (MC)) was 118 % of control; the T/C (dose: 24.0 mg/kg/injection, schedule: Q01DX007 (ip), vehicle: methylcellulose (MC)) is 80 % of control; the T/C (dose: 25.0 mg/kg/injection, schedule: Q01DX007 (ip), vehicle: water) was 114 % of control; the T/C (dose: 36.0 mg/kg/injection, schedule: Q01DX007 (ip), vehicle: methylcellulose (MC)) is 66 % of control; the T/C (dose: 50.0 mg/kg/injection, schedule: Q01DX007 (ip), vehicle: water) was 80 % of control.

Consider `Brc1ccc(-c2csc(Nc3nc(-c4ccc(Br)cc4)cs3)n2)cc1`, for which the T/C was 56 % of control and 73 % of control (dose: 200.0 mg/kg/injection, schedule: Q01DX007 (ip), vehicle: carboxymethylcellulose (CMC)); 52 % of control and 60 % of control (dose: 300.0 mg/kg/injection, schedule: Q01DX007 (ip), vehicle: carboxymethylcellulose (CMC)); 31 % of control (dose: 675.0 mg/kg/injection, schedule: Q01DX007 (ip), vehicle: carboxymethylcellulose (CMC)).

On to `CC(=O)[C@@]1(O)CC[C@H]2[C@@H]3C[C@H](C)C4=CC(=O)C=C[C@]4(C)[C@@]3(F)[C@@H](O)C[C@@]21C`, for which the T/C (dose: 6.9 mg/kg/injection, schedule: Q01DX007 (sc), vehicle: steriod suspending solution) is 102 % of control; the T/C (dose: 16.0 mg/kg/injection, schedule: Q01DX007 (sc), vehicle: steriod suspending solution) was 76 % of control; the T/C (dose: 17.0 mg/kg/injection, schedule: Q01DX007 (sc), vehicle: steriod suspending solution) was 60 % of control; the T/C (dose: 24.0 mg/kg/injection, schedule: Q01DX007 (sc), vehicle: steriod suspending solution) was 78 % of control; the T/C (dose: 26.0 mg/kg/injection, schedule: Q01DX007 (sc), vehicle: steriod suspending solution) was 19 % of control and 23 % of control; the T/C (dose: 27.5 mg/kg/injection, schedule: Q01DX007 (sc), vehicle: steriod suspending solution) was 65 % of control. In addition, the T/C is 33 % of control (dose: 27.5 mg/kg/injection, schedule: Q#A X014 (sc), vehicle: steriod suspending solution); 57 % of control (dose: 36.5 mg/kg/injection, schedule: Q01DX007 (sc), vehicle: steriod suspending solution); 17 % of control and 23 % of control and 36 % of control (dose: 40.0 mg/kg/injection, schedule: Q01DX007 (sc), vehicle: steriod suspending solution); 40 % of control (dose: 41.5 mg/kg/injection, schedule: Q#A X014 (sc), vehicle: steriod suspending solution); 29 % of control under setting [2]; 34 % of control and 45 % of control (dose: 62.5 mg/kg/injection, schedule: Q#A X014 (sc), vehicle: steriod suspending solution). The T/C by setting is: (dose: 83.0 mg/kg/injection, schedule: Q01DX007 (sc), vehicle: steriod suspending solution) 38 % of control; (dose: 85.0 mg/kg/injection, schedule: Q01DX007 (sc), vehicle: steriod suspending solution) 34 % of control; (dose: 90.0 mg/kg/injection, schedule: Q01DX007 (sc), vehicle: steriod suspending solution) 18 % of control; (dose: 125.0 mg/kg/injection, schedule: Q01DX007 (sc), vehicle: steriod suspending solution) 17 % of control; (dose: 135.0 mg/kg/injection, schedule: Q01DX007 (sc), vehicle: steriod suspending solution) 19 % of control; (dose: 188.0 mg/kg/injection, schedule: Q01DX007 (sc), vehicle: steriod suspending solution) 46 % of control. Further, the T/C was 25 % of control and 26 % of control (dose: 282.0 mg/kg/injection, schedule: Q01DX007 (sc), vehicle: steriod suspending solution); 34 % of control (dose: 300.0 mg/kg/injection, schedule: Q01DX007 (sc), vehicle: steriod suspending solution); 20 % of control and 39 % of control (dose: 423.0 mg/kg/injection, schedule: Q01DX007 (sc), vehicle: steriod suspending solution); 3 % of control (dose: 500.0 mg/kg/injection, schedule: Q01DX007 (sc), vehicle: steriod suspending solution); 30 % of control (dose: 600.0 mg/kg/injection, schedule: Q01DX007 (sc), vehicle: steriod suspending solution); 15 % of control (dose: 630.0 mg/kg/injection, schedule: Q01DX007 (sc), vehicle: steriod suspending solution). Further, the T/C reads like this: (dose: 900.0 mg/kg/injection, schedule: Q01DX007 (sc), vehicle: steriod suspending solution) 27 % of control; (dose: 945.0 mg/kg/injection, schedule: Q01DX007 (sc), vehicle: steriod suspending solution) 22 % of control; (dose: 1400.0 mg/kg/injection, schedule: Q01DX007 (sc), vehicle: steriod suspending solution) 14 % of control.

For `Nc1nc(=O)n(C2CC(O)C(CO)O2)cc1Br` (stereo not drawn), the T/C is 58 % of control (dose: 62.5 mg/kg/injection, schedule: Q#A X014 (ip), vehicle: carboxymethylcellulose (CMC)); 57 % of control (dose: 125.0 mg/kg/injection, schedule: Q#A X014 (ip), vehicle: carboxymethylcellulose (CMC)); 50 % of control (dose: 250.0 mg/kg/injection, schedule: Q#A X014 (ip), vehicle: carboxymethylcellulose (CMC)).

Turning to `CCOC(=O)NP(=O)(N1CC1)N1CC1`, the T/C reads like this: (dose: 937.0 micrograms/kg/injection, schedule: Q01DX007 (ip), vehicle: carboxymethylcellulose (CMC)) 113 % of control; (dose: 1875.0 micrograms/kg/injection, schedule: Q01DX007 (ip), vehicle: carboxymethylcellulose (CMC)) 100 % of control; (dose: 7500.0 micrograms/kg/injection, schedule: Q01DX007 (ip), vehicle: carboxymethylcellulose (CMC)) 74 % of control.

As to `C/C=C1/CN(C)C2Cc3c([nH]c4ccccc34)C(c3cc4[nH]c5c(c4cc3OC)CCN3CC4CC(C(C)O)C3C5(C(=O)OC)C4)CC1C2C(=O)OC` (stereo not drawn), the T/C is 54 % of control (dose: 10.0 mg/kg/injection, schedule: Q01DX007 (ip), vehicle: water); 97 % of control (dose: 20.0 mg/kg/injection, schedule: Q01DX007 (ip), vehicle: water); 87 % of control (dose: 30.0 mg/kg/injection, schedule: Q01DX007 (ip), vehicle: water); 80 % of control (dose: 40.0 mg/kg/injection, schedule: Q01DX007 (ip), vehicle: water).
